Columns and labels:
[1] = system: HERPES SIMPLEX VIRUS TYPE 2; experiment: virucidal activity of BKF, AFNOR T72-180, molecular screening (Table 5); type: cell-based, Herpes Simplex Virus Type 2 (HSV 2); conditions: 32° C.
rabbit blood = experiment: in vitro haemolysis of total blood, rabbit
[2] = in vitro haemolysis of total blood, human; conditions: human, blood
human blood = experiment: in vitro haemolysis of total blood, human
ADENOVIRUS Type 5 = experiment: virucidal activity of BKF, AFNOR T72-180, molecular screening (Table 3); type: cell-based; conditions: 32° C.
Method: We have determined the virucide activity of tetradecyl-dimethyl-benzyl-ammonium fluoride (BKF) vis-a-vis vertebrate viruses in conformance with French Standard AFNOR T72-180, December 1989. This benzalkonium fluoride was diluted in solution in sterile distilled water at the following concentrations: 0.02, 0.01, 0.005% (weight divided by volume).
adenovirid.ae butted.: adenovirus type 5, cultivated on KB cell,
The water, the culture medium and the reagents are those recognised by Standard AFNOR T72-180. The titration of the virus is by reading the cytopathic test, following the method described in Standard AFNOR T72-180. The calculation of the infectious titration is by the FISHER and YATES method with the WYSHAK and DETRE tables. The results are given in number of infectious units per ml, or plaque-forming units per ml (PFU/ml).
The virucidal activity was then determined by the technique known as molecular screening, consisting of filtration on sephadex gel LH 20 and using subcytotoxic concentrations of benzalkonium fluoride. The virucidal activity was determined as a function of contact time between the benzalkonium fluoride and the viral strain. […] The virucidal activity of benzalkonium fluoride (BKF) is determined by the minimal concentration and minimal contact time with the virus which provoked a reduction of infectious titration of the viruses by a logarithmic factor of a least 4. […]

HIV-1 virus (LAI strain) = experiment: residual infectiousness of treated HIV-1 on activated human lymphocytes, antigen P25 ELISA; type: cell-based, HIV-1 (LAI strain); conditions: 1/2 dilutions, REV7 (30 min) and REV8 (60 min) (FIG. 4)

Q: With CCCCCCCCCCCCCC[N+](C)(C)Cc1ccccc1.[F-] [benzalkonium fluoride, tetradecyl-dimethyl-benzyl-ammonium fluoride] as the compound, how does the “virucidal activity: minimal contact time” value ([1]; 0.01% (m/V)) read?
A: The value was 15 min.

Q: And the “Viral Titration” value ([1]; 0.01% (m/V), 60 minutes)?
A: The value was 0 PFU/ml.

Q: And the “Viral Titration” value ([1]; 0.01% (m/V), 120 minutes)?
A: The value was 0 PFU/ml.

Q: What about the “Viral Titration” value ([1]; 0.02% (m/V), 15 minutes) of the same compound?
A: The value was 0 PFU/ml.

Q: And the “Viral Titration” value ([1]; 0.02% (m/V), 30 minutes)?
A: Its value is 0 PFU/ml.

Q: What about the “Viral Titration” value ([1]; 0.02% (m/V), 60 minutes) of the same compound?
A: Its value is 0 PFU/ml.

Q: What about the “Viral Titration” value ([1]; 0.02% (m/V), 120 minutes) of the same compound?
A: Its value is 0 PFU/ml.

Q: And the “virucidal activity: minimal concentration (reduction by logarithmic factor of at least 4)” value ([1]; 15 minutes contact)?
A: Its value is 0.01 % (m/V).

Q: And the “haemolysis (degree of red colouring)” value (rabbit blood; 37.5 ppm or mg/l)?
A: The value was 0.

Q: And the “haemolysis (degree of red colouring)” value (rabbit blood; 75 ppm or mg/l)?
A: Its value is “+”.

Q: What about the “haemolysis (degree of red colouring)” value (rabbit blood; 150 ppm or mg/l) of the same compound?
A: The value was “+++”.

Q: What about the MNTC [2] of the same compound?
A: The MNTC was ≤ 20 µg/mL.

Q: What about the haemolysis (human blood; 37.5 mg/l, man, guinea pig and rabbit blood) of the same compound?
A: The haemolysis was “Not having noted h.ae butted.molysis”.

Q: And the “haemolysis (degree of red colouring)” value (human blood; 20 ppm or mg/l, 6 samples)?
A: The value was 0.

Q: And the “haemolysis (degree of red colouring)” value (human blood; 35 ppm or mg/l, 6 samples)?
A: Its value is 0.

Q: And the “haemolysis (degree of red colouring)” value (human blood; 37.5 ppm or mg/l)?
A: The value was 0.

Q: What about the “haemolysis (degree of red colouring)” value (human blood; 75 ppm or mg/l) of the same compound?
A: Its value is “+”.

Q: What about the “haemolysis (degree of red colouring)” value (human blood; 150 ppm or mg/l) of the same compound?
A: The value was “++”.

Q: And the “virucidal activity: minimal contact time” value (ADENOVIRUS Type 5; 0.02% (m/V))?
A: The value was 120 min.

Q: What about the “virucidal activity: minimal concentration (reduction by logarithmic factor of at least 4)” value (ADENOVIRUS Type 5; 120 minutes contact) of the same compound?
A: The value was 0.02 % (m/V).

Q: And the “antigen P25 in lymphocyte supernatants” value (HIV-1 virus (LAI strain))?
A: Its value is “negative”.
